Laboratory results published in patent publication US20110089073A1, “Methods And Compositions For Hydrophobic Modification Of Oral Cavity Surfaces” (The Procter & Gamble Company, priority 2009, published 2011).

What was measured:
[1] = Water contact angle method on treated enamel chips; design: species or system bovine
Protocol: A water contact angle method is used to determine the degree of hydrophobicity imparted by the present compositions to tooth surfaces. […] The method uses polished bovine enamel chips that are cleaned using a prophy paste followed by an acetone wipe and water rinse in a sonicator. Chips are then allowed to air dry for 60-90 minutes, and then baseline water contact angles are measured using prop Shape Analysis System DSA 10-MK2 from KRUSS. Chips with baseline water contact angle of about 48.00±5.00 are selected and randomized into groups of three per treatment. Following randomization each group of three chips are treated with a solution or dentifrice slurry (1:3 ratio) containing the test ingredient followed by a water rinse. The chips are then soaked in human saliva for an hour at 37° C. After the saliva soak, the chips are removed, rinsed with water and air dried. Contact angle reading is taken after at least 2 hours of drying. Water or regular toothpaste (without organophosphate) are used as controls. […] An increase in contact angle (post-treatment value—baseline) represents increased hydrophobic character of the surface; a decrease represents increased hydrophilic character of the surface.

[2] = In vitro erosion cycling protocol (citric acid challenge, TMR); design: species or system human; conditions: teeth treated with compositions containing the organophosphate
[3] = Dissolution of pretreated hydroxy apatite powder in acetate buffer pH 4.5
Protocol: In this protocol, HAP powder is pretreated with dentifrice slurry supernatant (20 g supernate/200 mg HAP powder) followed by three times washing with water. After the last wash, 2 ml of water is added and vortexed to form a uniform slurry. In a separate beaker, 25 ml of 0.1M acetate buffer is prepared and pH adjusted to 4.5. To this buffer solution having initial pH of 4.5, a sample of 0.5 ml of pre-treated HAP slurry is added and dissolution profile of the pretreated HAP powder is monitored via changes in pH of the acetate buffer solution. The pH change is measured and recorded using a Brinkman Titrino titrator device for 30 minutes. With HAP dissolution, pH increases and the pH change is compared to that of a plain water treated HAP as control and is used to calculate percent inhibition of HAP mineral loss.

[4] = Table 1, change from baseline after treatment, 1 h saliva soak, concentrations as in label
[5] = Table 1, vs water treated HAP, concentrations as in label
[6] = Table 3, with or without water soluble hydrophilic compound

Compound | Δ Water Contact Angle [1, 4] | Tooth mineral surface loss from acid exposure [2] | % Inhibition of HAP Surface Loss [3, 5] [%] | further results
CCCCCCCCCCCCOS(=O)(=O)[O-].[Na+] [1% SLS, sodium lauryl sulfate, reference compound] | 0.23 |  |  | 
CCCCCCCCCCCCOP(=O)([O-])[O-].[Na+].[Na+] [Sodium dodecyl phosphate] |  | significantly less tooth mineral surface loss |  | 
Potassium Laureth Phosphate [1% Potassium Laureth Phosphate] | 45.43 |  | 89.7 | 
Potassium Laureth-3 Phosphate [1% Potassium Laureth-3 Phosphate] | 23.2 |  | 94.8 | 
Sodium Dodeceth-1 Phosphate [1% Sodium Dodeceth-1 Phosphate] | 32.13 | significantly less tooth mineral surface loss | 94.5 | Δ Water Contact Angle ([1]; Table 2, concentration 0.25%): 19.07; Δ Water Contact Angle ([1]; Table 2, concentration 0.5%): 26.57; Δ Water Contact Angle ([1]; Table 2, concentration 1.0%): 43.77; Δ Water Contact Angle ([1]; Table 2, concentration 2.0%): 61.40; Δ Water Contact Angle [1, 6]: 32.13; % Inhibition of HAP Surface Loss ([3]; Table 2, concentration 0.25%): 58.56%; % Inhibition of HAP Surface Loss ([3]; Table 2, concentration 0.5%): 75.69%; % Inhibition of HAP Surface Loss ([3]; Table 2, concentration 1.0%): 92.03%; % Inhibition of HAP Surface Loss ([3]; Table 2, concentration 2.0%): 92.83%; % Inhibition of HAP Surface Loss [3, 6]: 94.49%
Sodium Dodeceth-9 Phosphate [1% Sodium Dodeceth-9 Phosphate] | 16.43 | significantly less tooth mineral surface loss | 45.24 | 
